Test results published in the supplement of paper PMC10883282.
± gives the standard deviation of the averaged measurements.

What was measured:
Assay in all cases: relative viability vs DMSO control (72 h) (fraction); higher = more viable cells
SYO-1 = tested on: SYO-1
Method in brief: (§1)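 Sarcoma cell lines in 384-well plates, seeded to reach 80–90% confluence, were given compound after 24 h and kept 72 h at 37 °C, 5% CO2, with 0.1% DMSO vehicle and a 5 µM positive control. Relative viability came from ATPLite as percent growth, averaged over up to triplicate wells. On the rescaled values, 1 equals full and 0 equals none.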

HT1080 = tested on: HT1080
Method in brief: as §1

KHOS-NP = tested on: KHOS-NP
Method in brief: as §1

VA-ES-BJ = tested on: VA-ES-BJ
Method in brief: as §1

SK-LMS-1 = tested on: SK-LMS-1
Method in brief: as §1

A204 = tested on: A204
Method in brief: as §1

HS729 = tested on: HS729
Method in brief: as §1

SW684 = tested on: SW684
Method in brief: as §1

SW872 = tested on: SW872
Method in brief: as §1

SW1353 = tested on: SW1353
Method in brief: as §1

MES-SA = tested on: MES-SA
Method in brief: as §1

G401 = tested on: G401
Method in brief: as §1

NC(=O)c1cnc2[nH]ccc2c1N[C@@H]1[C@@H]2CC3C[C@H]1C[C@@](O)(C3)C2 [Peficitinib]
Details	relative viability
A204, 0.00017 µM	1.06 ± 0.013
A204, 0.00051 µM	1.07 ± 0.039
A204, 0.00152 µM	1.07 ± 0.022
A204, 0.00457 µM	1.06 ± 0.045
A204, 0.01372 µM	1.06 ± 0.043
A204, 0.04115 µM	1.07 ± 0.062
A204, 0.1235 µM	1.02 ± 0.072
A204, 0.3704 µM	0.959 ± 0.057
A204, 1.111 µM	0.913 ± 0.031
A204, 3.333 µM	0.705 ± 0.027
A204, 10 µM	0.435 ± 0.028
G401, 0.00017 µM	0.9962 ± 0.0097
G401, 0.00051 µM	1.01 ± 0.013
G401, 0.00152 µM	1 ± 0.042
G401, 0.00457 µM	1.01 ± 0.012
G401, 0.01372 µM	1.05 ± 0.023
G401, 0.04115 µM	1.04 ± 0.021
G401, 0.1235 µM	1.08 ± 0.028
G401, 0.3704 µM	1.14 ± 0.047
G401, 1.111 µM	1.19 ± 0.037
G401, 3.333 µM	1.14 ± 0.049
G401, 10 µM	1.01 ± 0.025
HS729, 0.00017 µM	1.04 ± 0.04
HS729, 0.00051 µM	1.02 ± 0.059
HS729, 0.00152 µM	1.03 ± 0.053
HS729, 0.00457 µM	1.04 ± 0.05
HS729, 0.01372 µM	0.984 ± 0.047
HS729, 0.04115 µM	1 ± 0.049
HS729, 0.1235 µM	0.985 ± 0.057
HS729, 0.3704 µM	1.02 ± 0.07
HS729, 1.111 µM	0.977 ± 0.073
HS729, 3.333 µM	0.9905 ± 0.0092
HS729, 10 µM	0.758 ± 0.018
HT1080, 0.00017 µM	1.058 ± 0.0072
HT1080, 0.00051 µM	1.05 ± 0.042
HT1080, 0.00152 µM	1.06 ± 0.016
HT1080, 0.00457 µM	1.03 ± 0.011
HT1080, 0.01372 µM	1.03 ± 0.028
HT1080, 0.04115 µM	1.06 ± 0.012
HT1080, 0.1235 µM	1.06 ± 0.012
HT1080, 0.3704 µM	1.11 ± 0.028
HT1080, 1.111 µM	1.22 ± 0.047
HT1080, 3.333 µM	1.35 ± 0.028
HT1080, 10 µM	1.29 ± 0.094
KHOS-NP, 0.00017 µM	1.09 ± 0.023
KHOS-NP, 0.00051 µM	1.06 ± 0.029
KHOS-NP, 0.00152 µM	1.08 ± 0.025
KHOS-NP, 0.00457 µM	1.07 ± 0.035
KHOS-NP, 0.01372 µM	1.05 ± 0.021
KHOS-NP, 0.04115 µM	1.06 ± 0.045
KHOS-NP, 0.1235 µM	1.07 ± 0.022
KHOS-NP, 0.3704 µM	1.07 ± 0.033
KHOS-NP, 1.111 µM	1.07 ± 0.038
KHOS-NP, 3.333 µM	1.02 ± 0.071
KHOS-NP, 10 µM	0.671 ± 0.016
MES-SA, 0.00017 µM	0.913 ± 0.024
MES-SA, 0.00051 µM	0.9465 ± 0.0071
MES-SA, 0.00152 µM	0.9008 ± 0.0041
MES-SA, 0.00457 µM	0.918 ± 0.016
MES-SA, 0.01372 µM	0.9 ± 0.011
MES-SA, 0.04115 µM	0.94 ± 0.018
MES-SA, 0.1235 µM	0.945 ± 0.029
MES-SA, 0.3704 µM	0.971 ± 0.018
MES-SA, 1.111 µM	0.981 ± 0.029
MES-SA, 3.333 µM	0.769 ± 0.0099
MES-SA, 10 µM	0.388 ± 0.021
SK-LMS-1, 0.00017 µM	1.09 ± 0.013
SK-LMS-1, 0.00051 µM	1.09 ± 0.043
SK-LMS-1, 0.00152 µM	1.05 ± 0.012
SK-LMS-1, 0.00457 µM	1.076 ± 0.0086
SK-LMS-1, 0.01372 µM	1.1 ± 0.082
SK-LMS-1, 0.04115 µM	1.07 ± 0.025
SK-LMS-1, 0.1235 µM	1.08 ± 0.018
SK-LMS-1, 0.3704 µM	1.08 ± 0.043
SK-LMS-1, 1.111 µM	1.13 ± 0.013
SK-LMS-1, 3.333 µM	1.11 ± 0.037
SK-LMS-1, 10 µM	0.965 ± 0.025
SW684, 0.00017 µM	1.08 ± 0.056
SW684, 0.00051 µM	1.09 ± 0.069
SW684, 0.00152 µM	1.11 ± 0.032
SW684, 0.00457 µM	1.12 ± 0.081
SW684, 0.01372 µM	1.12 ± 0.044
SW684, 0.04115 µM	1.12 ± 0.06
SW684, 0.1235 µM	1.12 ± 0.045
SW684, 0.3704 µM	1.15 ± 0.066
SW684, 1.111 µM	1.17 ± 0.026
SW684, 3.333 µM	1.09 ± 0.022
SW684, 10 µM	0.827 ± 0.03
SW872, 0.00017 µM	1.01 ± 0.04
SW872, 0.00051 µM	1.03 ± 0.014
SW872, 0.00152 µM	1.037 ± 0.0068
SW872, 0.00457 µM	0.985 ± 0.059
SW872, 0.01372 µM	1.033 ± 0.0011
SW872, 0.04115 µM	1.03 ± 0.03
SW872, 0.1235 µM	1.02 ± 0.013
SW872, 0.3704 µM	0.996 ± 0.037
SW872, 1.111 µM	0.999 ± 0.065
SW872, 3.333 µM	0.932 ± 0.076
SW872, 10 µM	0.767 ± 0.026
SW1353, 0.00017 µM	1.03 ± 0.028
SW1353, 0.00051 µM	1.05 ± 0.034
SW1353, 0.00152 µM	1.01 ± 0.044
SW1353, 0.00457 µM	1.012 ± 0.01
SW1353, 0.01372 µM	1.04 ± 0.023
SW1353, 0.04115 µM	1.07 ± 0.046
SW1353, 0.1235 µM	1.04 ± 0.031
SW1353, 0.3704 µM	1.08 ± 0.033
SW1353, 1.111 µM	1.09 ± 0.025
SW1353, 3.333 µM	1.09 ± 0.032
SW1353, 10 µM	0.988 ± 0.04
SYO-1, 0.00017 µM	1 ± 0.032
SYO-1, 0.00051 µM	0.981 ± 0.03
SYO-1, 0.00152 µM	0.985 ± 0.04
SYO-1, 0.00457 µM	0.995 ± 0.013
SYO-1, 0.01372 µM	0.975 ± 0.015
SYO-1, 0.04115 µM	0.97 ± 0.039
SYO-1, 0.1235 µM	0.953 ± 0.058
SYO-1, 0.3704 µM	0.933 ± 0.055
SYO-1, 1.111 µM	0.705 ± 0.062
SYO-1, 3.333 µM	0.56 ± 0.054
SYO-1, 10 µM	0.405 ± 0.014
VA-ES-BJ, 0.00017 µM	1.06 ± 0.033
VA-ES-BJ, 0.00051 µM	1.03 ± 0.027
VA-ES-BJ, 0.00152 µM	1.01 ± 0.018
VA-ES-BJ, 0.00457 µM	1.01 ± 0.032
VA-ES-BJ, 0.01372 µM	1.04 ± 0.027
VA-ES-BJ, 0.04115 µM	1.06 ± 0.028
VA-ES-BJ, 0.1235 µM	1.04 ± 0.049
VA-ES-BJ, 0.3704 µM	1.05 ± 0.032
VA-ES-BJ, 1.111 µM	1.08 ± 0.02
VA-ES-BJ, 3.333 µM	1.042 ± 0.0079
VA-ES-BJ, 10 µM	0.887 ± 0.021
